Data as given in the kinase profiling compilation of Christmann-Franck et al. (2016).

What was measured:
Assay in all cases: KINOMEscan competition binding
Conditions in all cases: compound 10.0 µM
[1] = target: CDKL3 (human) (UniProt Q8IVW4)
[2] = target: TGFBR2 (human) (UniProt P37173)
[3] = target: MARK3 (human) (UniProt P27448)
[4] = target: TGFBR1 (human) (UniProt P36897)
[5] = target: MAP4K2 (human) (UniProt Q12851)
[6] = target: CDK17 (human) (UniProt Q00537)
[7] = target: DYRK1B (human) (UniProt Q9Y463)
[8] = system: RET (human), P07949 [M918T]
[9] = target: SBK1 (human) (UniProt Q52WX2)
[10] = target: LATS1 (human) (UniProt O95835)
[11] = target: MAP3K1 (human) (UniProt Q13233)
[12] = target: MYO3A (human) (UniProt Q8NEV4)
[13] = target: RPS6KA6 KD2 (human) (UniProt Q9UK32)
[14] = target: RPS6KA2 KD1 (human) (UniProt Q15349)
[15] = system: PIK3CA (human), P42336 [E542K]
[16] = target: CDK9 (human) (UniProt P50750)
[17] = target: PLK3 (human) (UniProt Q9H4B4)
[18] = target: EPHB4 (human) (UniProt P54760)
[19] = target: MAPK9 (human) (UniProt P45984)
[20] = target: EPHA1 (human) (UniProt P21709)
[21] = system: FGFR3 (human), P22607 [G697C]
[22] = system: ABL1 (human), P00519 [M351T]
[23] = target: STK32B (human) (UniProt Q9NY57)
[24] = target: IRAK1 (human) (UniProt P51617)
[25] = target: SIK1 (human) (UniProt P57059)
[26] = target: MAP3K10 (human) (UniProt Q02779)
[27] = target: MAP2K2 (human) (UniProt P36507)
[28] = target: NUAK1 (human) (UniProt O60285)
[29] = target: CAMK2D (human) (UniProt Q13557)
[30] = target: ANKK1 (human) (UniProt Q8NFD2)
[31] = system: PIK3CA (human), P42336 [M1043I]
[32] = target: MAP2K6 (human) (UniProt P52564)
[33] = target: SYK (human) (UniProt P43405)
[34] = target: STK11 (human) (UniProt Q15831)
[35] = target: TIE1 (human) (UniProt P35590)
[36] = target: PDPK1 (human) (UniProt O15530)
[37] = target: JAK1 JH1 catalytic (human) (UniProt P23458)
[38] = target: TYRO3 (human) (UniProt Q06418)
[39] = target: MAST1 (human) (UniProt Q9Y2H9)
[40] = target: PKN2 (human) (UniProt Q16513)
[41] = target: MAP4K4 (human) (UniProt O95819)

Chain of EPHA1 (human) (P21709 whole entry, looked up): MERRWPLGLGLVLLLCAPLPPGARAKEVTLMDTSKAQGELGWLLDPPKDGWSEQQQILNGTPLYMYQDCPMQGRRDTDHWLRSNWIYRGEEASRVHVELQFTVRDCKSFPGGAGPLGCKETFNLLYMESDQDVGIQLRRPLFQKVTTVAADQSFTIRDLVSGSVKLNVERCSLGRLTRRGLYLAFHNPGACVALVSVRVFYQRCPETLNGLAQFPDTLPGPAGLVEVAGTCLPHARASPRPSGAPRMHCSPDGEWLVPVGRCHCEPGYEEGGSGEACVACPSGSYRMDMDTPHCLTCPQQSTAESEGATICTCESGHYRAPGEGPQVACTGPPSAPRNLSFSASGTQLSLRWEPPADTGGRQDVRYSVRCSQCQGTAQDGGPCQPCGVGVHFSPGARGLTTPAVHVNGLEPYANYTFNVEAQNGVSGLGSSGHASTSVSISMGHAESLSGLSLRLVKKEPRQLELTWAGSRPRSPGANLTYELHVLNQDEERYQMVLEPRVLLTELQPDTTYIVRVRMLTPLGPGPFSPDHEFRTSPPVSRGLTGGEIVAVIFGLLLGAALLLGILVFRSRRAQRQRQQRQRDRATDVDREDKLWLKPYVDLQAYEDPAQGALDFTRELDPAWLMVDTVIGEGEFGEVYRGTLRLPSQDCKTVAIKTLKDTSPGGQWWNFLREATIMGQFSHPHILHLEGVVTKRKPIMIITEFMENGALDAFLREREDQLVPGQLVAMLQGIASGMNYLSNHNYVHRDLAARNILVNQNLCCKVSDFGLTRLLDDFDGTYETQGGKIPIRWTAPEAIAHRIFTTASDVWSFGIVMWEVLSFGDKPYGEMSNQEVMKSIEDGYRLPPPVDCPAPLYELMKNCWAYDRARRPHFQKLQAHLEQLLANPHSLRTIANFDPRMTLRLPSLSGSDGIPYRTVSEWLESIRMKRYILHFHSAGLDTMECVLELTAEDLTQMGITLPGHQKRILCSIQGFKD
Chain of MAP2K2 (human) (P36507 whole entry, looked up): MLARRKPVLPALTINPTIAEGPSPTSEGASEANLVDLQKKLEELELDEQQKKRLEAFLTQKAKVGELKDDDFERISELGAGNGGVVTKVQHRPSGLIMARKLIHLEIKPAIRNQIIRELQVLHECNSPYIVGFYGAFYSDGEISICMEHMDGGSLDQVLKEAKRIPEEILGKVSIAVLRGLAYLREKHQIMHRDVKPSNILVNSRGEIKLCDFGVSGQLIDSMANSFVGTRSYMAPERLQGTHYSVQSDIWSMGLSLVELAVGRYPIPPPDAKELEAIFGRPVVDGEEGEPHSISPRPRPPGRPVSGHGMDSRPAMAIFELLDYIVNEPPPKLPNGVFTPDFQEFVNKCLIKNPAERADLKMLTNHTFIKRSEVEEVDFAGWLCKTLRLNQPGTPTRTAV
Chain of STK11 (human) (Q15831 whole entry, looked up): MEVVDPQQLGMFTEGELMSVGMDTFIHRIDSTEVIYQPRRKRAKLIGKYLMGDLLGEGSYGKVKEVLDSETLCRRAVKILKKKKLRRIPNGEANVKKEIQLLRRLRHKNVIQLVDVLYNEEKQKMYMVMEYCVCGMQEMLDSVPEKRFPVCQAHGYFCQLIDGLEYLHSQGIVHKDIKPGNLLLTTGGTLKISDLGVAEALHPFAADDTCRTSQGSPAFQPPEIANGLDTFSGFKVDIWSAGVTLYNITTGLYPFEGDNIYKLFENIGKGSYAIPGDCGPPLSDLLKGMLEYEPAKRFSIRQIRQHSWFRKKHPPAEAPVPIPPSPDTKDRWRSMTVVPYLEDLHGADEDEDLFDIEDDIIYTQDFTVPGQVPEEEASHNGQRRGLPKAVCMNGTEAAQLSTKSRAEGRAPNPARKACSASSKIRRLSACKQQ
Chain of MYO3A (human) (Q8NEV4 whole entry, looked up): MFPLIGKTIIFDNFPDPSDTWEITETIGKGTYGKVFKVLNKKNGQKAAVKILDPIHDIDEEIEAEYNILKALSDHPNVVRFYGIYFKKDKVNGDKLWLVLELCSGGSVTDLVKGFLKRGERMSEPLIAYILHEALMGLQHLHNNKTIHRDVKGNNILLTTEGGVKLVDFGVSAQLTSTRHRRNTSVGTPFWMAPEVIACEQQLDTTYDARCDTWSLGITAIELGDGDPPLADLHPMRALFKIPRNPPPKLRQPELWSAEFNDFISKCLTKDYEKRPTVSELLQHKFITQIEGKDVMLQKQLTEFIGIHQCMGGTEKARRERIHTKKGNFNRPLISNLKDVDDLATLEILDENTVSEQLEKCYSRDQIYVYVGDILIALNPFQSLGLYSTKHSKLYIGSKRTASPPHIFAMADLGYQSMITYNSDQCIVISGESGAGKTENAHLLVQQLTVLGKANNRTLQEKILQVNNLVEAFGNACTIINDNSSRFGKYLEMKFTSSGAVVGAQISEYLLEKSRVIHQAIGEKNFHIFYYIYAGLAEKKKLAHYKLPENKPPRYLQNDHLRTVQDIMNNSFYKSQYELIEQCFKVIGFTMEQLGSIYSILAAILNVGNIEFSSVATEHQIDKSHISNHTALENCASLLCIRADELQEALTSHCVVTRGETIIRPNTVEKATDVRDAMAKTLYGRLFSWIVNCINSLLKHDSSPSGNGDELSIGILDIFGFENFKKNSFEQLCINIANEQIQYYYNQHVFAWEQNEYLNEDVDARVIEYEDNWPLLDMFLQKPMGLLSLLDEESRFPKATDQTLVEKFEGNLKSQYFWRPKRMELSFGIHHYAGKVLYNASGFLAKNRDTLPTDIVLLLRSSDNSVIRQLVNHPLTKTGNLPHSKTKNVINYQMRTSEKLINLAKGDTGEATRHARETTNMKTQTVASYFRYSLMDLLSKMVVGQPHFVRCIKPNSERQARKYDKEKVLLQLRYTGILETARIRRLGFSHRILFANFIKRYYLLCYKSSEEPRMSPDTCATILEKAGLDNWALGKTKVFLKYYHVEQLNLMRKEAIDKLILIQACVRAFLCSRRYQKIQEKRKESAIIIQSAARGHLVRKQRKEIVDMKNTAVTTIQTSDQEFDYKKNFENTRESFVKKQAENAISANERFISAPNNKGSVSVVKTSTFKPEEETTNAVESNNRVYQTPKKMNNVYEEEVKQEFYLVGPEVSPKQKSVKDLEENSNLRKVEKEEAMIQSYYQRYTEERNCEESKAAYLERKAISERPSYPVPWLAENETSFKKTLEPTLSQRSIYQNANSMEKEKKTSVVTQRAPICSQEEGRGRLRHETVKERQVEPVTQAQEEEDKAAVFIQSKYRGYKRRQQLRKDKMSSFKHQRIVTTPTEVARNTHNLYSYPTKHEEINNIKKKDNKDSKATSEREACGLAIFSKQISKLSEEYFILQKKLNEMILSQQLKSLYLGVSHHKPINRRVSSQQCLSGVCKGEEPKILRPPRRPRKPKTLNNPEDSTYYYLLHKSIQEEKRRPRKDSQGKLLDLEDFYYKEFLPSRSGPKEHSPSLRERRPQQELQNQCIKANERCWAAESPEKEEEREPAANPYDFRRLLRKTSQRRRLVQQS
Chain of RET (human), P07949 [M918T] (P07949 whole entry M918T, looked up): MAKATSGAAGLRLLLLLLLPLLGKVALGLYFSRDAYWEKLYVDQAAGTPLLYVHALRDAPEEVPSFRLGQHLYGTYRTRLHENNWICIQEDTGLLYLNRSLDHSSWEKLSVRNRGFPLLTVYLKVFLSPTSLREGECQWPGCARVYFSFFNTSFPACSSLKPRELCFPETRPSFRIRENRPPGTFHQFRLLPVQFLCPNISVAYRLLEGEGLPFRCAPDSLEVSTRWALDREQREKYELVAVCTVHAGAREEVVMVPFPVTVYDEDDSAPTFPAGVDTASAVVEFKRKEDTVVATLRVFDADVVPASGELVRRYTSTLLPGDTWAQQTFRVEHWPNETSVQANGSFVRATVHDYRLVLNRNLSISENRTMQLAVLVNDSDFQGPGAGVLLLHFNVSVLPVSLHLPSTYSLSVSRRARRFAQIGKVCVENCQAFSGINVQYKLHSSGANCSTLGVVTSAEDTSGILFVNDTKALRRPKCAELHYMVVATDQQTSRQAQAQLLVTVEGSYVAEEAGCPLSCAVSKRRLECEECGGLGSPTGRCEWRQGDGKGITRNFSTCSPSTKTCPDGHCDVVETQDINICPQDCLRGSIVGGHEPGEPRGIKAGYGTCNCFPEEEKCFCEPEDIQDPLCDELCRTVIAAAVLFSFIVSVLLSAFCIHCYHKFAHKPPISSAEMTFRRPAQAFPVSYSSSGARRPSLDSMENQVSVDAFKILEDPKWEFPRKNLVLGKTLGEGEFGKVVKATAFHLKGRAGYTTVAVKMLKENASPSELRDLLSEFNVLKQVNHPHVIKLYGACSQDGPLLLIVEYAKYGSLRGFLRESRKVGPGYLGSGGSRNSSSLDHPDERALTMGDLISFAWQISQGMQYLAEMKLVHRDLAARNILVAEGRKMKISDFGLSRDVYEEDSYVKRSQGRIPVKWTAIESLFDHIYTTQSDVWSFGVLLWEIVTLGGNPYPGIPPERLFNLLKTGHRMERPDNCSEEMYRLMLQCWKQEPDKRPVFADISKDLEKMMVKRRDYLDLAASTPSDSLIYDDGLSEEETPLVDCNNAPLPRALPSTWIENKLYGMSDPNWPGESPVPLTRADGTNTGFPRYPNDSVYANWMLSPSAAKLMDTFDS
Chain of MAPK9 (human) (P45984 whole entry, looked up): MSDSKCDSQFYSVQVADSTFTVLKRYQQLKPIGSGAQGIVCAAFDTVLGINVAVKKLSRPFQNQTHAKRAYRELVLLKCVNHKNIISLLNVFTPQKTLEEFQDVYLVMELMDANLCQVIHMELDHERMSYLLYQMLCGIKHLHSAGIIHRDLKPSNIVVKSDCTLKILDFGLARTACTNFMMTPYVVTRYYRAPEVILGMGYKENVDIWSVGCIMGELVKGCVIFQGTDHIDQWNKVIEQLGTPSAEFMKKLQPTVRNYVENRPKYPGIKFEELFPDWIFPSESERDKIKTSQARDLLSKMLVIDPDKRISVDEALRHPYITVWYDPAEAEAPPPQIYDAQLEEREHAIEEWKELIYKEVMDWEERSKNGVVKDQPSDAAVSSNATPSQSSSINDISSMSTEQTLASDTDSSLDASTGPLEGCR

SMILES | kinase still bound, per cent of control [1] | kinase still bound, per cent of control [2] | kinase still bound, per cent of control [3] | kinase still bound, per cent of control [4] | kinase still bound, per cent of control [5] | kinase still bound, per cent of control [6] | kinase still bound, per cent of control [7] | kinase still bound, per cent of control [8] | kinase still bound, per cent of control [9] | kinase still bound, per cent of control [10] | kinase still bound, per cent of control [11] | kinase still bound, per cent of control [12] | kinase still bound, per cent of control [14] | kinase still bound, per cent of control [15] | kinase still bound, per cent of control [16] | kinase still bound, per cent of control [17] | kinase still bound, per cent of control [18] | kinase still bound, per cent of control [19] | kinase still bound, per cent of control [20] | kinase still bound, per cent of control [21] | further results
Cc1cnc(-c2cnc(NCCNc3ccc(C#N)cn3)nc2-c2ccc(Cl)cc2Cl)[nH]1 | 52% | 100% | 100% | 100% | 82% | 100% | 100% | 100% | 100% | 100% | 100% | 100% | 70% | 100% | 58% | 80% | 100% | 87% | 100% | 100% | kinase still bound, per cent of control [13]: 83%; kinase still bound, per cent of control [22]: 99%; kinase still bound, per cent of control [23]: 100%; kinase still bound, per cent of control [24]: 100%; kinase still bound, per cent of control [25]: 100%; kinase still bound, per cent of control [26]: 76%; kinase still bound, per cent of control [27]: 100%; kinase still bound, per cent of control [28]: 100%; kinase still bound, per cent of control [29]: 100%; kinase still bound, per cent of control [30]: 100%; kinase still bound, per cent of control [31]: 100%; kinase still bound, per cent of control [32]: 73%; kinase still bound, per cent of control [33]: 100%; kinase still bound, per cent of control [34]: 100%; kinase still bound, per cent of control [35]: 100%; kinase still bound, per cent of control [36]: 99%; kinase still bound, per cent of control [37]: 94%; kinase still bound, per cent of control [38]: 100%; kinase still bound, per cent of control [39]: 79%
COc1ccc(CNC(=O)Nc2ncc([N+](=O)[O-])s2)cc1 | 76% | 70% | 100% | 82% | 100% | 79% | 100% | 100% | 100% | 100% | 100% | 100% | 100% | 100% | 89% | 100% | 100% | 84% | 100% | 100% | kinase still bound, per cent of control [40]: 78%; kinase still bound, per cent of control [41]: 92%; kinase still bound, per cent of control [22]: 63%; kinase still bound, per cent of control [23]: 100%; kinase still bound, per cent of control [24]: 100%; kinase still bound, per cent of control [25]: 93%; kinase still bound, per cent of control [26]: 87%; kinase still bound, per cent of control [27]: 100%; kinase still bound, per cent of control [28]: 100%; kinase still bound, per cent of control [29]: 100%; kinase still bound, per cent of control [30]: 100%; kinase still bound, per cent of control [31]: 100%; kinase still bound, per cent of control [32]: 98%; kinase still bound, per cent of control [33]: 100%; kinase still bound, per cent of control [34]: 83%; kinase still bound, per cent of control [35]: 100%; kinase still bound, per cent of control [36]: 78%; kinase still bound, per cent of control [37]: 76%; kinase still bound, per cent of control [38]: 93%; kinase still bound, per cent of control [39]: 98%
